# Results as given in patent publication US12258327B2, “5-membered heteroaryl-containing aminopyridine compounds as EGFR inhibitors” (YUHAN CORPORATION, priority 2021, dated 2025).
# Columns and labels:
# EGFR L858R/C797S = EGFR L858R/C797S (Homo sapiens, UniProt P00533, C797S/L858R); test: Biochemical EGFR kinase assay (Lance Ultra TR-FRET), double mutant L858R/C797S; conditions: Km ATP; read-out: IC50 L858R/C797S (nM) Km ATP
# Outline: (§1)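 Enzyme reactions lasted 1 hour at room temperature with test compounds between 0.003 and 10 μM, followed by 10 mM EDTA quench.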
# EGFR L858R/T790M/C797S = EGFR L858R/T790M/C797S (Homo sapiens, UniProt P00533, C797S/L858R/T790M); test: Biochemical EGFR kinase assay (Lance Ultra TR-FRET), triple mutant L858R/T790M/C797S; conditions: Km ATP; read-out: IC50 L858R/T790M/C797S (nM) Km ATP
# Sequence of EGFR L858R/T790M/C797S (P00533 25-1210 T790M/C797S/L858R): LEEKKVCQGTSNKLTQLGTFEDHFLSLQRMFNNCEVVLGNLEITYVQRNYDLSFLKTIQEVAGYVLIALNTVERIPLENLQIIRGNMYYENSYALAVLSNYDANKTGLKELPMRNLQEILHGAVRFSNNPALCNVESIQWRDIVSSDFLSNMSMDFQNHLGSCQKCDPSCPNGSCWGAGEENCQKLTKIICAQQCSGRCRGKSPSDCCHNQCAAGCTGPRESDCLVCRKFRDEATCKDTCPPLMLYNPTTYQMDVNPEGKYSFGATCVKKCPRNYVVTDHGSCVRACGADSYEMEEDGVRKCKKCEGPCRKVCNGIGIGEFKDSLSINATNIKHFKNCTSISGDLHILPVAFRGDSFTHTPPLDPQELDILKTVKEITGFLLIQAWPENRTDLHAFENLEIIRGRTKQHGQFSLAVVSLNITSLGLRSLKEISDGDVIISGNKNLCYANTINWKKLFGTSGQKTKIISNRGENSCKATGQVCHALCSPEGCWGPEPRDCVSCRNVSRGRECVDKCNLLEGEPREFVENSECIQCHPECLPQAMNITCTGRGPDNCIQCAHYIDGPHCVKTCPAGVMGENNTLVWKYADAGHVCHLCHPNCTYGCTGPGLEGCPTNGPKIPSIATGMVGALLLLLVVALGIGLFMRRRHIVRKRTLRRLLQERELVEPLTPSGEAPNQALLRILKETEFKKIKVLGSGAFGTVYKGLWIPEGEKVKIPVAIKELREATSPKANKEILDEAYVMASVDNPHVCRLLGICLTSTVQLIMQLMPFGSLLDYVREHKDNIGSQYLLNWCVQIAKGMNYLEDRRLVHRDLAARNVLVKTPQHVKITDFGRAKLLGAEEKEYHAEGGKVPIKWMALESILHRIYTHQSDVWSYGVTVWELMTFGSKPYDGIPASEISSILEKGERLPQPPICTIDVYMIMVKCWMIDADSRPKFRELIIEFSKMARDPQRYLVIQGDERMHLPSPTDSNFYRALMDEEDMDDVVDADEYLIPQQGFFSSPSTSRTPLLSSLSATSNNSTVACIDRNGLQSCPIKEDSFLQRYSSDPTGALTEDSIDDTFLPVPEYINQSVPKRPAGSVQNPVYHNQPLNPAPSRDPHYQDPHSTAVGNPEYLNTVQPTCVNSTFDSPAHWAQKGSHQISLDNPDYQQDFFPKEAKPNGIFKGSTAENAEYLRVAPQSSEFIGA
# Outline: as §1
# EGFR del19/T790M/C797S = EGFR del19/T790M/C797S (Homo sapiens, UniProt P00533, C797S/DEL746-750/T790M); test: Biochemical EGFR kinase assay (Lance Ultra TR-FRET), triple mutant del19/T790M/C797S; conditions: Km ATP; read-out: IC50 del19/T790M/C797S (nM) Km ATP
# Sequence of EGFR del19/T790M/C797S (P00533 with tags, fused parts or gaps DEL746-750/T790M/C797S): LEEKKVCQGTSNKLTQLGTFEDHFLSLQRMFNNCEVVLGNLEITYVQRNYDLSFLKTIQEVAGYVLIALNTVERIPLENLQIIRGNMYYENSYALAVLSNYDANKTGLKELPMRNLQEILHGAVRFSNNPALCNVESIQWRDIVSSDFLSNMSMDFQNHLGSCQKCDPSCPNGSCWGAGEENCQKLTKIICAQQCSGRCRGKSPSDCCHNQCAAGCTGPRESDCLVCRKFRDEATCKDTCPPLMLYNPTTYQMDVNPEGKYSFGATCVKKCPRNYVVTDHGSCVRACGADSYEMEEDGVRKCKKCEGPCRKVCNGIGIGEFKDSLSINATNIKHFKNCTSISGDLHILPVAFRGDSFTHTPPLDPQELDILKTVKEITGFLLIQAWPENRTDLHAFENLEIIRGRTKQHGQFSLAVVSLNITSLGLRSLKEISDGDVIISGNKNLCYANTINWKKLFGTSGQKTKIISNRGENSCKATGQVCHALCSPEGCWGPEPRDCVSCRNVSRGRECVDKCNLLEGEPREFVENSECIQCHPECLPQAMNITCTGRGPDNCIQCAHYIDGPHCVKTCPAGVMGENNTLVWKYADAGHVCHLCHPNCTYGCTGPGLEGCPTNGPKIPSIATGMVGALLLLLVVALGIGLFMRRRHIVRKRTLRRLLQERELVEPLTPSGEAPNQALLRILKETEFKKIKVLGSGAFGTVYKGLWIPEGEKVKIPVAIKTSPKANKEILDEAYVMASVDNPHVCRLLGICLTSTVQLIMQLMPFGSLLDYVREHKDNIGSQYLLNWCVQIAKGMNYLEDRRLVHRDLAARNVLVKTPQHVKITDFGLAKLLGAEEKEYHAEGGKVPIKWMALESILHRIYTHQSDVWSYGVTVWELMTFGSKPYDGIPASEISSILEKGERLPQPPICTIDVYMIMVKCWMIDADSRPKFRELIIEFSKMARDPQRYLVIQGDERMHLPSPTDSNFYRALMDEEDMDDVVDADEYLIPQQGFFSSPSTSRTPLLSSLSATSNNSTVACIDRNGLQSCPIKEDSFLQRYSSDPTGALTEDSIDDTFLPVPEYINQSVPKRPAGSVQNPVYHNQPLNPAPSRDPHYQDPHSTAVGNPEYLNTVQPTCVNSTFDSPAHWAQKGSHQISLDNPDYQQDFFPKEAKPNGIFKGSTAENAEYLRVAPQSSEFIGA
# Outline: as §1
# EGFR wildtype (WT) = EGFR wildtype (WT) (Homo sapiens, UniProt P00533); test: Biochemical EGFR kinase assay (Lance Ultra TR-FRET), wildtype; conditions: Km ATP; read-out: IC50 WT (nM) Km ATP
# Sequence of EGFR wildtype (WT) (P00533 25-1210): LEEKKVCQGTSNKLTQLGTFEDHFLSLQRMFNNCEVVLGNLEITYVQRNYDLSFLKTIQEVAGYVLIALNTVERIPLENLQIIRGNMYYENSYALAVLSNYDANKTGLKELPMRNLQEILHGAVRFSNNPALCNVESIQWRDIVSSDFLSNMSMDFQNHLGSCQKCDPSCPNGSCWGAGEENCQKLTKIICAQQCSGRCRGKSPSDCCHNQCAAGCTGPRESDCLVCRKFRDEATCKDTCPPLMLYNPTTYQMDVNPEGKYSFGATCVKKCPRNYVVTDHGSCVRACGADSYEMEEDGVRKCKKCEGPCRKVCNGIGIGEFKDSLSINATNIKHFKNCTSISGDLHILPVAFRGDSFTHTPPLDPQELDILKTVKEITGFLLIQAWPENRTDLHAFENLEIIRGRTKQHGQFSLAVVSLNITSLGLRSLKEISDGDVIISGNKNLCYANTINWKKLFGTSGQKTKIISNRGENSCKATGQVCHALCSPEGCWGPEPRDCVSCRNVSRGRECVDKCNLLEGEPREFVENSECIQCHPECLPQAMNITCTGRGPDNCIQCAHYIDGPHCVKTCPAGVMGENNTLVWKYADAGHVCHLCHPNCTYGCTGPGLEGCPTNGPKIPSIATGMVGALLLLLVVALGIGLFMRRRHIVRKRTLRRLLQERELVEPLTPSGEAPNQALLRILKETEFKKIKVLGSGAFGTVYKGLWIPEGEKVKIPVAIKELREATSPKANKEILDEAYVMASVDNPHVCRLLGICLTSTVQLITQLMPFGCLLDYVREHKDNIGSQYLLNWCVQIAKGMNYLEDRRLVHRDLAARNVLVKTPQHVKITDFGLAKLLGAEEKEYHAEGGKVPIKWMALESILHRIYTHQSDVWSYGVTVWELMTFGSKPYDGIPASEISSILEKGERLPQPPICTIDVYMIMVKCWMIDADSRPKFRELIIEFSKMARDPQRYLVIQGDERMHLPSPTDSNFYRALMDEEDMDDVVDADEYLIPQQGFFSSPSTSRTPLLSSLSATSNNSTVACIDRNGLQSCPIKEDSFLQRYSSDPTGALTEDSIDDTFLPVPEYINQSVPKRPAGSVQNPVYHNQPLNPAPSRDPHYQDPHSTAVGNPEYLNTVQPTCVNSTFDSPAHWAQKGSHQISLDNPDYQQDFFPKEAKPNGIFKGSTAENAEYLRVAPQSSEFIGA
# Outline: as §1
# EGFR del19/C797S = EGFR del19/C797S (Homo sapiens, UniProt P00533, C797S/DEL746-750); test: Biochemical EGFR kinase assay (Lance Ultra TR-FRET), double mutant del19/C797S; conditions: Km ATP; read-out: IC50 del19/C797S (nM) Km ATP
# Outline: as §1
# Sequence of EGFR L858R/C797S (P00533 25-1210 C797S/L858R): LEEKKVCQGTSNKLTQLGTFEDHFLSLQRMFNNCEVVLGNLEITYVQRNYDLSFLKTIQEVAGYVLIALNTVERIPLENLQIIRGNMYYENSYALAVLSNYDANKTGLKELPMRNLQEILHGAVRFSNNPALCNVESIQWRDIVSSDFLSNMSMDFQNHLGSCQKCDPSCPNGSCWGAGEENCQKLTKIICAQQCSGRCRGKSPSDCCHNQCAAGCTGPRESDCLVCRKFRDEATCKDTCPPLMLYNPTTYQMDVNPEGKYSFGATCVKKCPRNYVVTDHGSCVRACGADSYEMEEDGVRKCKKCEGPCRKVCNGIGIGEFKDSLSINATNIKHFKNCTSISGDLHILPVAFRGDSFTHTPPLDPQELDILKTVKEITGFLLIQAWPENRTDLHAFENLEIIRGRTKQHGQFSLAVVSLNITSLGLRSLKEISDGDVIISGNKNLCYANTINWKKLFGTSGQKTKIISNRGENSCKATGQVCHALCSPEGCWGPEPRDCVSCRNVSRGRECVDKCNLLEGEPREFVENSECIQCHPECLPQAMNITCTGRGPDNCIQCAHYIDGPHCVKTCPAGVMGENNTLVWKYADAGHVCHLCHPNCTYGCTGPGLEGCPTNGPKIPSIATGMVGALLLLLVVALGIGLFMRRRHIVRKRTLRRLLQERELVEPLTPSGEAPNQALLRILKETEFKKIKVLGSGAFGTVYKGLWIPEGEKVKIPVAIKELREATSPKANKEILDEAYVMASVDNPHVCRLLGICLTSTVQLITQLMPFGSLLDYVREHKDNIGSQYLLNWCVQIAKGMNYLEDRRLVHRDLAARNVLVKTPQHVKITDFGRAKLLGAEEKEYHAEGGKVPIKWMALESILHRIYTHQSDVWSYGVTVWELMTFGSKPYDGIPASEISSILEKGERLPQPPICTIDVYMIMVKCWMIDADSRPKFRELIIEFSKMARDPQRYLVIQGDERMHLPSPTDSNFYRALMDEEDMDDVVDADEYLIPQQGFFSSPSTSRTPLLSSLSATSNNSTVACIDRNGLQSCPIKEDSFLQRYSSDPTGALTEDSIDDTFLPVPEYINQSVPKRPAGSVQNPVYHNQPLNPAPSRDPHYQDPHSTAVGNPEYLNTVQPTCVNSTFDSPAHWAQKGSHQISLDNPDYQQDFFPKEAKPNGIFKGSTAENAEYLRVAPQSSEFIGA
IC50 (EGFR L858R/C797S) [nM],IC50 (EGFR L858R/T790M/C797S) [nM],IC50 (EGFR del19/T790M/C797S) [nM],IC50 (EGFR wildtype (WT)) [nM],IC50 (EGFR del19/C797S) [nM],Structure (SMILES)
339,3.2,35.2,986,> 10000,"CS(=O)(=O)N1CC=C(c2nccc(Nc3cc(N[C@H]4CC[C@@](C)(O)CC4)c(-c4ccn(C(F)F)n4)cn3)n2)CC1 [Example 156, (1s,4s)-4-((5-(1-(Difluoromethyl)-1H-pyrazol-3-yl)-2-((2-(1-(methylsulfonyl)-1,2,3,6-tetrahydropyridin-4-yl)pyrimidin-4-yl)amino)pyridin-4-yl)amino)-1-methylcyclohexan-1-ol]"
55.7,9.7,30.9,408,125,"O=S(=O)(C1CC1)n1cc(-c2nccc(Nc3cc(N[C@H]4CC[C@@H](C(F)F)CC4)c(-c4ccn(C(F)F)n4)cn3)n2)cn1 [Example 157, N^2-(2-(1-(Cyclopropylsulfonyl)-1H-pyrazol-4-yl)pyrimidin-4-yl)-5-(1-(difluoromethyl)-1H-pyrazol-3-yl)-N^4-((1s,4s)-4-(difluoromethyl)cyclohexyl)pyridine-2,4-diamine]"
450,9.4,110,635,6330,"CS(=O)(=O)N1CCC(c2nccc(Nc3cc(N[C@H]4CC[C@@](C)(O)CC4)c(-c4ccn(C(F)F)n4)cn3)n2)CC1 [Example 158, (1s,4s)-4-((5-(1-(Difluoromethyl)-1H-pyrazol-3-yl)-2-((2-(1-(methylsulfonyl)piperidin-4-yl)pyrimidin-4-yl)amino)pyridin-4-yl)amino)-1-methylcyclohexan-1-ol]"
1,0.5,1,8.3,2,"Cn1nc(-c2cnc(Nc3ccnc(-c4cnn(S(=O)(=O)C5CC5)c4)n3)cc2NN2CCC(O)CC2)cc1C(F)(F)F [Example 160, 1-((2-((2-(1-(Cyclopropylsulfonyl)-1H-pyrazol-4-yl)pyrimidin-4-yl)amino)-5-(1-methyl-5-(trifluoromethyl)-1H-pyrazol-3-yl)pyridin-4-yl)amino)piperidin-4-ol]"
275,0.2,0.9,271,33.4,"OC1CCN(Nc2cc(Nc3ccnc(-c4cnn(CC(F)F)c4)n3)ncc2-c2ccn(C(F)F)n2)CC1 [Example 162, 1-((2-((2-(1-(2,2-Difluoroethyl)-1H-pyrazol-4-yl)pyrimidin-4-yl)amino)-5-(1-(difluoromethyl)-1H-pyrazol-3-yl)pyridin-4-yl)amino)piperidin-4-ol]"
744,0.9,1.8,737,55.3,"Cn1nc(-c2cnc(Nc3ccnc(-c4cnn(CC(F)F)c4)n3)cc2NN2CCC(O)CC2)cc1C(F)(F)F [Example 163, 1-((2-((2-(1-(2,2-Difluoroethyl)-1H-pyrazol-4-yl)pyrimidin-4-yl)amino)-5-(1-methyl-5-(trifluoromethyl)-1H-pyrazol-3-yl)pyridin-4-yl)amino)piperidin-4-ol]"
135,4.8,8.8,1210,370,"O=S(=O)(C1CC1)n1cc(-c2nccc(Nc3cc(N[C@H]4CC[C@@H](F)CC4)c(-c4nc(C(F)F)cs4)cn3)n2)cn1 [Example 164, N^2-(2-(1-(Cyclopropylsulfonyl)-1H-pyrazol-4-yl)pyrimidin-4-yl)-5-(4-(difluoromethyl)thiazol-2-yl)-N^4-((1s,4s)-4-fluorocyclohexyl)pyridine-2,4-diamine]"
47.7,0.4,0.6,129,58.9,"C[C@]1(O)CC[C@@H](Nc2cc(Nc3ccnc(-c4cnn(S(=O)(=O)C5CC5)c4)n3)ncc2-n2ccc(C(F)(F)F)n2)CC1 [Example 167, (1s,4s)-4-((2-((2-(1-(Cyclopropylsulfonyl)-1H-pyrazol-4-yl)pyrimidin-4-yl)amino)-5-(3-(trifluoromethyl)-1H-pyrazol-1-yl)pyridin-4-yl)amino)-1-methylcyclohexan-1-ol]"

# Second part, the compound before the results:
Structure (SMILES),IC50 (EGFR L858R/C797S) [nM],IC50 (EGFR L858R/T790M/C797S) [nM],IC50 (EGFR del19/T790M/C797S) [nM],IC50 (EGFR wildtype (WT)) [nM],IC50 (EGFR del19/C797S) [nM]
"C[C@]1(O)CC[C@@H](Nc2cc(Nc3ccnc(-c4cnc5c(c4)NCCO5)n3)ncc2-c2ccn(C(F)F)n2)CC1 [Example 154, (1s,4s)-4-((5-(1-(Difluoromethyl)-1H-pyrazol-3-yl)-2-((2-(2,3-dihydro-1H-pyrido[2,3-b][1,4]oxazin-7-yl)pyrimidin-4-yl)amino)pyridin-4-yl)amino)-1-methylcyclohexan-1-ol]",16.2,0.2,0.3,377,128
"C[C@]1(O)CC[C@@H](Nc2cc(Nc3ccnc(Nc4ccnn4CC(F)F)n3)ncc2-c2ccn(C(F)F)n2)CC1 [Example 155, (1s,4s)-4-((2-((2-((1-(2,2-Difluoroethyl)-1H-pyrazol-5-yl)amino)pyrimidin-4-yl)amino)-5-(1-(difluoromethyl)-1H-pyrazol-3-yl)pyridin-4-yl)amino)-1-methylcyclohexan-1-ol]",139,2.8,4.2,1100,162
"CC(=O)N1CC=C(c2nccc(Nc3cc(N[C@H]4CC[C@@](C)(O)CC4)c(-c4ccn(C(F)F)n4)cn3)n2)CC1 [Example 159, 1-(4-(4-((5-(1-(Difluoromethyl)-1H-pyrazol-3-yl)-4-(((1s,4s)-4-hydroxy-4-methylcyclohexyl)amino)pyridin-2-yl)amino)pyrimidin-2-yl)-3,6-dihydropyridin-1(2H)-yl)ethan-1-one]",291,11.7,19.2,327,2050
"FC(F)Cn1cc(-c2nccc(Nc3cc(N[C@H]4CC[C@@H](F)CC4)c(-c4ccn(C(F)F)n4)cn3)n2)cn1 [Example 161, N^2-(2-(1-(2,2-Difluoroethyl)-1H-pyrazol-4-yl)pyrimidin-4-yl)-5-(1-(difluoromethyl)-1H-pyrazol-3-yl)-N^4-((1s,4s)-4-fluorocyclohexyl)pyridine-2,4-diamine]",60.6,2.4,3.2,640,276
"COc1ccc(-c2nccc(Nc3cc(N[C@H]4CC[C@@](C)(O)CC4)c(-c4ccn(C(F)F)n4)cn3)n2)cn1 [Example 165, (1s,4s)-4-((5-(1-(Difluoromethyl)-1H-pyrazol-3-yl)-2-((2-(6-methoxypyridin-3-yl)pyrimidin-4-yl)amino)pyridin-4-yl)amino)-1-methylcyclohexan-1-ol]",884,2.3,3,6830,1260
"COc1ccc(-c2nccc(Nc3cc(N[C@H]4CC[C@@](C)(O)CC4)c(-c4ccn(C(F)F)n4)cn3)n2)c(F)n1 [Example 166, (1s,4s)-4-((5-(1-(Difluoromethyl)-1H-pyrazol-3-yl)-2-((2-(2-fluoro-6-methoxypyridin-3-yl)pyrimidin-4-yl)amino)pyridin-4-yl)amino)-1-methylcyclohexan-1-ol]",198,3.6,7.2,503,737
